Measurements published in patent publication US20250345309A1, “IMMUNE HEALTH IMPROVERS” (Amazentis SA, priority 2024, published 2025).

Tests used:
[1] = system: plasma cytokines; assay: Plasma cytokine measurements (LEGENDplex); format: in vivo, human; settings: d28 vs baseline, 1000 mg/day oral
Protocol: Inflammatory cytokines were measured using LEGENDplex™ HU Essential Immune Response Panel (BioLegend) according to the manufacturer's instructions. Plasma samples were diluted 1:1 in assay diluent as recommended and technical duplicates were used for both the standard curve and experimental samples. Analysis was performed with the provided software.

[2] = Laboratory chemistry / biochemical safety analysis; format: in vivo, human
Protocol: During the baseline and follow-up visits, blood was drawn by a physician or physician's assistant to assess blood biochemistry parameters and haematology. Analysis was performed using clinically validated systems at the University Hospital Frankfurt, Germany.

[3] = system: PBMCs; assay: Single cell RNA sequencing of PBMCs; format: in vivo, human
[4] = system: T cells; assay: T cell stimulation assay (αCD3/αCD28 beads, four days); format: in vivo, human; settings: PBMCs ex vivo
Protocol: To study the antigen response of T cells, 0.5×10^6 thawed PBMCs were pre-stained with CellTrace Violet (C34557 ThermoFisher Scientific) according to the manufacturer's instructions. After washing, they were plated in a 24 well plate for 24 h to deplete monocyte populations by plastic adherence. Next, cells in suspension were transferred to a new tube and centrifuged at 350 g for 5 min, followed by reconstitution in fresh T cell medium. Cells were stimulated with human αCD3/C28 stimulation beads (Dynabeads, ThermoFirsher) for four days, using a ratio of 25 μl Beads per 0.5×10^6 cells. Following the stimulation period, magnetic beads were discarded via magnetic separation and cells were stained with PE-Cy7 CD4, APC-Cy7CD8, CD45RA FITC, CCR7 AF700 and live/dead ef780. To study cytokine expression, Brefeldin A (Biolegend) was added to stimulated PBMCs for the last 3 hours. Cells were then washed and stained using the panel above, while intracellular staining for cytokine assessment was performed with BD Cytofix/Cytoperm (BD) with 20 min fixation and overnight incubation with αIL-4-CF594, αIFNγ-PE (XMG1.2; 45-7311-82; eBioscience) and αTNFa-APC (MP6-XT22; 563944; BD). Finally, samples were fixed with 1% PFA until data acquisition. To functionally characterize the human immune system after systemic UA supplementation further, proliferative capacity and cytokine secretion of T cells was assessed. PBMCs from both intervention groups were incubated in the presence of αCD3/αCD28 stimulation beads for a total of four days (FIG. 10A).

[5] = system: PBMCs; assay: SCENITH mitochondrial dependency analysis of immune populations; format: in vivo, human; settings: d28, 1000 mg/day oral
Protocol: Single cell energetic metabolism by profiling translation inhibition (SCENITH) was used to determine metabolic dependencies of select immune populations, which was performed as described previously (R. J. Argüello et al. Cell metabolism […], 32, 1063-1075). SCENITH reagents kit (inhibitors, puromycin and antibodies) were obtained from www.scenith.com/try-it and used according to the provided protocol. In short, 0.3×10^6 PBMCs were treated for 15 min with Control (DMSO), 2-Deoxy-Glucose (2-DG; 100 mM), Oligomycin (O; 1 μM) and the combination of 2DG and Oligomycin (DGO) or Harringtonine (H; 2 μg/mL). Following metabolic inhibitors, Puromycin (final concentration 10 μg/mL) was added to cultures for 30 min. After puromycin treatment, cells were washed in PBMC was buffer and stained with the following antibodies for 15 min at 4° C.: PE-Cy7 CD4, APC Cy7 CD8, CD45RA AF700, vFkour 450 CD3, CCR7 APC, BV786 CD14 PercP5.5 CD19, PE-CF594 CD16; CD56 BV711, BV510 Viability dye.
Cells were fixed and permeabilized using the Foxp3 intracellular staining kit (Invitrogen eBioscience) for 1 h. Intracellular staining of puromycin and protein targets was performed for 1 h in diluted (10×) permeabilization buffer at 4° C. Finally, data acquisition was performed using the Cytek Aurora flow cytometer. Samples were unmixed using reference controls generated in combination with stained Ultracomp beads (Fisher Scientific, 01-2222-41) using the SpectroFlo Software. The unmixed FCS files were used for data processing and analysis using FlowJo (BD, version 10.8.1). Immune cell populations of interest were gated manually for downstream analysis. gMFI expression values for Puromycin were exported from FlowJo to calculate metabolic dependencies. The following calculations were used:
To further characterize the metabolic profile of immune cells on a single-cell resolution, we employed SCENITH, a flow-cytometry based strategy that uses incorporation of Puromycin to infer metabolic dependencies (see Argüello et al., SCENITH: A flow cytometry-based method to functionally profile energy metabolism with single cell resolution, 2020, Cell Metabolism, 32, 1063-1075).

[6] = human, in vivo
[7] = system: circulating immune cells; assay: Clinical hemocytometry of circulating immune cells; format: in vivo, human; settings: d28 vs baseline, 1000 mg/day oral
Protocol: During the baseline and follow-up visits, blood was drawn by a physician or physician's assistant to assess blood biochemistry parameters and haematology. Analysis was performed using clinically validated systems at the University Hospital Frankfurt, Germany. The aim of the present study was to globally assess the effect of UA on the immune system, in particular with respect to parameters of immune aging. We therefore performed clinical hemocytometry to first categorize circulating immune cells, comparing immune composition at baseline and upon the last study visit (FIG. 1A).

[8] = after 28 days of UA compared to placebo

What does the source list for `O=c1oc2cc(O)ccc2c2ccc(O)cc12` [Urolithin A]?
Plasma IFN-γ level [1]: significantly lower; Plasma IL-1β level [1]: significantly lower; Plasma IL-2 level [1]: significantly lower; Plasma IL-6 level [1]: No difference; Plasma IL-8 level [1]: No difference; Plasma IL-10 level [1]: significantly lower; Plasma TNF-α level [1]: significantly lower; Plasma interferon-gamma induced protein (IP-10) level [1]: No difference; Plasma monocyte chemoattractant protein-1 (MCP-1) level [1]: No difference; Bilirubin (mean ± SD) ([2]; Group A d 28, 1000 mg/day oral, d 0 0.53 ± 0.31, p 0.28 n.s.): 0.49 ± 0.26 mg/dL; Creatinine (mean ± SD) ([2]; Group A d 28, 1000 mg/day oral, d 0 0.82 ± 0.13, p 0.80 n.s.): 0.81 ± 0.11 mg/dL; Albumin (mean ± SD) ([2]; Group A d 28, 1000 mg/day oral, d 0 4.54 ± 0.24, p 0.85 n.s.): 4.55 ± 0.24 g/dL; Uric acid (mean ± SD) ([2]; Group A d 28, 1000 mg/day oral, d 0 4.86 ± 1.43, p 0.25 n.s.): 5.04 ± 1.79 mg/dL; Total Serum Protein (mean ± SD) ([2]; Group A d 28, 1000 mg/day oral, d 0 7.02 ± 0.38, p 0.59 n.s.): 7.06 ± 0.35 g/dL; gGT (mean ± SD) ([2]; Group A d 28, 1000 mg/day oral, d 0 24.60 ± 15.90, p 0.07 n.s.): 27.13 ± 19.19 U/I; AST (mean ± SD) ([2]; Group A d 28, 1000 mg/day oral, d 0 27.26 ± 11.56, p 0.76 n.s.): 28.04 ± 16.10 U/I; ALT (mean ± SD) ([2]; Group A d 28, 1000 mg/day oral, d 0 28.00 ± 24.02, p 0.38 n.s.): 29.44 ± 30.27 U/I; HDL cholesterol (mean ± SD) ([2]; Group A d 28, 1000 mg/day oral, d 0 66.06 ± 13.51, p 0.06 n.s.): 62.98 ± 17.58 mg/dL; AP (mean ± SD) ([2]; Group A d 28, 1000 mg/day oral, d 0 75.40 ± 20.60, p 0.15 n.s.): 73.28 ± 19.22 U/I; LDL cholesterol (mean ± SD) ([2]; Group A d 28, 1000 mg/day oral, d 0 136.6 ± 33.95, p 0.89 n.s.): 136.2 ± 30.56 mg/dL; Triglycerides (mean ± SD) ([2]; Group A d 28, 1000 mg/day oral, d 0 154.0 ± 98.53, p 0.53 n.s.): 143.2 ± 70.34 mg/dL; Total Cholesterol (mean ± SD) ([2]; Group A d 28, 1000 mg/day oral, d 0 212.5 ± 33.60, p 0.89 n.s.): 213.0 ± 33.48 mg/dL; Changes in metabolic markers, kidney function parameters and liver enzymes ([2]; after the 28-day intervention period, 1000 mg/day oral): No significant changes; Activation markers CD69 and CXCR4 in NK cells ([3]; after 28 days of UA): reduction; Electron transport chain components (MT-ND5, MT-CO1, MT-CO2) in naïve T cells ([3]; after 28 days of UA): induced; Immediate-early genes (NR4A2, DUSP1, FOS, JUN, NFKBIA) in NK cells ([3]; after 28 days of UA): reduction; Inflammatory gene signature (MX1, XAF1, ISG15, TNSF10) in B cells ([3]; after 28 days of UA): downregulated; Interferon response pathway genes (IFITM2, IER2, STAT1) in monocytes ([3]; after 28 days of UA): Strongest downregulation; Mitochondrial genes (MT-CYB, MT-ND5, MT-ATP8, MT-CO1) and NAMPT in monocytes ([3]; after 28 days of UA): strong upregulation; Protein Kinase A (PKA) signaling and other immune inhibitory pathways, CD8+ T cells ([3]; after 28 days of UA): strongly inhibited; T cell receptor (TCR) signaling, canonical pathway analysis, CD8+ T cells ([3]; after 28 days of UA): activation; cAMP-responsive element modulator (CREM) in CD8+ TEM subset ([3]; after 28 days of UA): downregulation; Differentially expressed genes in CD8+ T cells, down [3, 8]: 37 genes; Differentially expressed genes in CD8+ T cells, up [3, 8]: 52 genes; Genes associated with T cell exhaustion, suppression and hypofunction (NR4A2, CREM, TGFB1, METRNL) in CD8+ T cells [3, 8]: downregulated; IL7R in CD8+ T cells [3, 8]: induction; Wnt-associated stemness transcription factors TCF7 and LEF1 in CD8+ T cells [3, 8]: upregulation; Differentially expressed genes in CD8+ T cells, total ([3]; after 28 days of UA compared to placebo, five participants): 89 genes; CD8+ TCM/TEM phenotype distribution after CD3 receptor engagement [4]: no treatment-specific distribution pattern; T cell proliferation ([4]; UA vs placebo, baseline vs d28): no difference; CD8+ expression of IFN-γ when stimulated ([4]; baseline vs d28): remained unchanged; IL-4 production of antigen challenged CD8+ cells ([4]; baseline vs d28, no change with placebo): reduced; Capacity to shift to OXPHOS when deprived of glycolysis ([5]; CD8+ cells): stronger capacity; Dependence on glucose metabolism ([5]; CD8+ cells): less dependence; Mitochondrial capacity in CD8+ subsets TN, TEM, TCM, TEEF [5]: potentiation; Mitochondrial capacity in total CD8+ cells [5]: potentiates; Intensity of adverse events noted during the study [6]: all mild; Monocytes (total count) [7]: did not show marked alterations; Neutrophiles (total count) [7]: did not show marked alterations; Total leukocytes (count) [7]: did not show marked alterations; Circulating eosinophiles (total count) ([7]; not observed with placebo): significantly more; Circulating lymphocytes (total count) ([7]; not observed with placebo): significantly more
